According to PMC12446476 (Nature Communications, 2025):
In brackets after ≈: the same amount, converted by molar mass. Read-outs that look alike come from different tables or passages of the source.

Test system: non-gonococcal Neisseria
Test: MIC determination for non-gonococcal Neisseria, agar dilution
Assay type: cell-based, Neisseria species
Conditions: read-out: Minimum inhibitory concentration
Excerpt: The 2024 WHO N. gonorrhoeae reference strains were used for quality control. Only whole MIC doubling dilutions are reported. Clinical breakpoints or the epidemiological cutoff (ECOFF, to indicate azithromycin resistance) from EUCAST (v14.0, https://www.eucast.org/clinical_breakpoints) were used to classify isolates as antimicrobial susceptible or resistant. […] Two times the standard inoculum defined by CLSI was used to establish consistent growth in untreated control samples for some strains. In vitro time-kill assays were performed according to CLSI guidelines[65] using Columbia Broth (BD Difco) supplemented with 1% IsoVitaleX Enrichment (BD). Viable bacterial counts were generated by plating 10-fold serially diluted samples on GC agar plates containing 1% IsoVitaleX Enrichment (BD).

With `Cc1c(CN(C)C(=O)/C=C/c2cnc3c(c2)N[C@H](C)[C@H](O)C(=O)N3)oc2ccccc12` [Debio 1453] the MIC (Neisseria animalis 1, Consensus) was 0.25 µg/mL (≈ 0.595 µM), the MIC (Neisseria animalis 1, Replicate 1) was 0.25 µg/mL (≈ 0.595 µM) and the MIC (Neisseria animalis 1, Replicate 2) was 0.25 µg/mL (≈ 0.595 µM). For the same compound, the MIC (Neisseria animalis 1, Replicate 3) was 0.25 µg/mL (≈ 0.595 µM), the MIC (Neisseria cinerea 1, Consensus) was 0.032 µg/mL (≈ 0.0761 µM) and the MIC (Neisseria cinerea 1, Replicate 1) was 0.032 µg/mL (≈ 0.0761 µM). It also gave an MIC (Neisseria cinerea 1, Replicate 2) of 0.032 µg/mL (≈ 0.0761 µM), an MIC (Neisseria cinerea 1, Replicate 3) of 0.032 µg/mL (≈ 0.0761 µM) and an MIC (Neisseria cinerea 2, Consensus) of 0.25 µg/mL (≈ 0.595 µM). For the same compound, the MIC (Neisseria cinerea 2, Replicate 1) was 0.25 µg/mL (≈ 0.595 µM), the MIC (Neisseria cinerea 2, Replicate 2) was 0.25 µg/mL (≈ 0.595 µM) and the MIC (Neisseria cinerea 2, Replicate 3) was 0.25 µg/mL (≈ 0.595 µM). For the same compound, the MIC (Neisseria cinerea 3, Consensus) was 0.008 µg/mL (≈ 0.019 µM), the MIC (Neisseria cinerea 3, Replicate 1) was 0.008 µg/mL (≈ 0.019 µM) and the MIC (Neisseria cinerea 3, Replicate 2) was 0.016 µg/mL (≈ 0.0381 µM). The MIC (Neisseria cinerea 3, Replicate 3) was 0.008 µg/mL (≈ 0.019 µM), the MIC (Neisseria cinerea 6, Consensus) was 0.016 µg/mL (≈ 0.0381 µM) and the MIC (Neisseria cinerea 6, Replicate 1) was 0.032 µg/mL (≈ 0.0761 µM). The MIC (Neisseria cinerea 6, Replicate 2) was 0.016 µg/mL (≈ 0.0381 µM), the MIC (Neisseria cinerea 6, Replicate 3) was 0.016 µg/mL (≈ 0.0381 µM) and the MIC (Neisseria cinerea 7, Consensus) was 0.5 µg/mL (≈ 1.19 µM). For the same compound, the MIC (Neisseria cinerea 7, Replicate 1) was 0.5 µg/mL (≈ 1.19 µM), the MIC (Neisseria cinerea 7, Replicate 2) was 0.5 µg/mL (≈ 1.19 µM) and the MIC (Neisseria cinerea 7, Replicate 3) was 0.5 µg/mL (≈ 1.19 µM). For the same compound, the MIC (Neisseria cinerea 8, Replicate 1) was 0.25 µg/mL (≈ 0.595 µM), the MIC (Neisseria cinerea 9, Consensus) was 0.5 µg/mL (≈ 1.19 µM) and the MIC (Neisseria cinerea 9, Replicate 1) was 0.5 µg/mL (≈ 1.19 µM). For the same compound, the MIC (Neisseria cinerea 9, Replicate 2) was 0.5 µg/mL (≈ 1.19 µM), the MIC (Neisseria cinerea 9, Replicate 3) was 0.5 µg/mL (≈ 1.19 µM) and the MIC (Neisseria elongata 2, Consensus) was 2 µg/mL (≈ 4.76 µM). For the same compound, the MIC (Neisseria elongata 2, Replicate 1) was 2 µg/mL (≈ 4.76 µM), the MIC (Neisseria elongata 2, Replicate 2) was 2 µg/mL (≈ 4.76 µM) and the MIC (Neisseria elongata 2, Replicate 3) was 2 µg/mL (≈ 4.76 µM). The MIC (Neisseria elongata 3, Consensus) was 1 µg/mL (≈ 2.38 µM), the MIC (Neisseria elongata 3, Replicate 1) was 1 µg/mL (≈ 2.38 µM) and the MIC (Neisseria elongata 3, Replicate 2) was 1 µg/mL (≈ 2.38 µM). The MIC (Neisseria elongata 3, Replicate 3) was 1 µg/mL (≈ 2.38 µM), the MIC (Neisseria flava 1, Replicate 2) was 0.064 µg/mL (≈ 0.152 µM) and the MIC (Neisseria flavescens 1, Consensus) was 0.016 µg/mL (≈ 0.0381 µM). For the same compound, the MIC (Neisseria flavescens 1, Replicate 1) was 0.032 µg/mL (≈ 0.0761 µM), the MIC (Neisseria flavescens 1, Replicate 2) was 0.016 µg/mL (≈ 0.0381 µM) and the MIC (Neisseria flavescens 1, Replicate 3) was 0.016 µg/mL (≈ 0.0381 µM). The MIC (Neisseria flavescens 2, Replicate 2) was 0.25 µg/mL (≈ 0.595 µM), the MIC (Neisseria flavescens 3, Consensus) was 0.25 µg/mL (≈ 0.595 µM) and the MIC (Neisseria flavescens 3, Replicate 1) was 0.25 µg/mL (≈ 0.595 µM). For the same compound, the MIC (Neisseria flavescens 3, Replicate 2) was 0.25 µg/mL (≈ 0.595 µM), the MIC (Neisseria flavescens 3, Replicate 3) was 0.25 µg/mL (≈ 0.595 µM) and the MIC (Neisseria flavescens 4, Consensus) was 0.5 µg/mL (≈ 1.19 µM). It also gave an MIC (Neisseria flavescens 4, Replicate 1) of 0.25 µg/mL (≈ 0.595 µM), an MIC (Neisseria flavescens 4, Replicate 2) of 0.5 µg/mL (≈ 1.19 µM) and an MIC (Neisseria flavescens 4, Replicate 3) of 0.5 µg/mL (≈ 1.19 µM). It also gave an MIC (Neisseria flavescens 5, Consensus) of 0.5 µg/mL (≈ 1.19 µM), an MIC (Neisseria flavescens 5, Replicate 1) of 0.25 µg/mL (≈ 0.595 µM) and an MIC (Neisseria flavescens 5, Replicate 2) of 1 µg/mL (≈ 2.38 µM). For the same compound, the MIC (Neisseria flavescens 5, Replicate 3) was 0.5 µg/mL (≈ 1.19 µM), the MIC (Neisseria flavescens 6, Consensus) was 0.064 µg/mL (≈ 0.152 µM) and the MIC (Neisseria flavescens 6, Replicate 1) was 0.064 µg/mL (≈ 0.152 µM). The MIC (Neisseria flavescens 6, Replicate 2) was 0.064 µg/mL (≈ 0.152 µM), the MIC (Neisseria flavescens 6, Replicate 3) was 0.064 µg/mL (≈ 0.152 µM) and the MIC (Neisseria flavescens 7, Consensus) was 0.5 µg/mL (≈ 1.19 µM). It also gave an MIC (Neisseria flavescens 7, Replicate 1) of 0.5 µg/mL (≈ 1.19 µM), an MIC (Neisseria flavescens 7, Replicate 2) of 0.5 µg/mL (≈ 1.19 µM) and an MIC (Neisseria flavescens 7, Replicate 3) of 1 µg/mL (≈ 2.38 µM). The MIC (Neisseria flavescens 8, Replicate 1) was 0.064 µg/mL (≈ 0.152 µM), the MIC (Neisseria flavescens 9, Consensus) was 1 µg/mL (≈ 2.38 µM) and the MIC (Neisseria flavescens 9, Replicate 1) was 1 µg/mL (≈ 2.38 µM). It also gave an MIC (Neisseria flavescens 9, Replicate 2) of 1 µg/mL (≈ 2.38 µM), an MIC (Neisseria flavescens 9, Replicate 3) of 1 µg/mL (≈ 2.38 µM) and an MIC (Neisseria flavescens 10, Replicate 2) of 0.25 µg/mL (≈ 0.595 µM). For the same compound, the MIC (Neisseria flavescens 11, Consensus) was 0.5 µg/mL (≈ 1.19 µM), the MIC (Neisseria flavescens 11, Replicate 1) was 0.5 µg/mL (≈ 1.19 µM) and the MIC (Neisseria flavescens 11, Replicate 2) was 1 µg/mL (≈ 2.38 µM). The MIC (Neisseria flavescens 11, Replicate 3) was 0.5 µg/mL (≈ 1.19 µM), the MIC (Neisseria flavescens 12, Consensus) was 0.064 µg/mL (≈ 0.152 µM) and the MIC (Neisseria flavescens 12, Replicate 1) was 0.064 µg/mL (≈ 0.152 µM). It also gave an MIC (Neisseria flavescens 12, Replicate 2) of 0.064 µg/mL (≈ 0.152 µM), an MIC (Neisseria flavescens 13, Consensus) of 1 µg/mL (≈ 2.38 µM) and an MIC (Neisseria flavescens 13, Replicate 1) of 1 µg/mL (≈ 2.38 µM). For the same compound, the MIC (Neisseria flavescens 13, Replicate 2) was 1 µg/mL (≈ 2.38 µM), the MIC (Neisseria flavescens 13, Replicate 3) was 1 µg/mL (≈ 2.38 µM) and the MIC (Neisseria flavescens 14, Consensus) was 1 µg/mL (≈ 2.38 µM). It also gave an MIC (Neisseria flavescens 14, Replicate 1) of 1 µg/mL (≈ 2.38 µM), an MIC (Neisseria flavescens 14, Replicate 2) of 1 µg/mL (≈ 2.38 µM) and an MIC (Neisseria flavescens 14, Replicate 3) of 1 µg/mL (≈ 2.38 µM). For the same compound, the MIC (Neisseria flavescens 15, Consensus) was 1 µg/mL (≈ 2.38 µM), the MIC (Neisseria flavescens 15, Replicate 1) was 1 µg/mL (≈ 2.38 µM) and the MIC (Neisseria flavescens 15, Replicate 2) was 1 µg/mL (≈ 2.38 µM). For the same compound, the MIC (Neisseria flavescens 15, Replicate 3) was 1 µg/mL (≈ 2.38 µM), the MIC (Neisseria flavescens 16, Consensus) was 0.25 µg/mL (≈ 0.595 µM) and the MIC (Neisseria flavescens 16, Replicate 1) was 0.25 µg/mL (≈ 0.595 µM). The MIC (Neisseria flavescens 16, Replicate 2) was 0.25 µg/mL (≈ 0.595 µM), the MIC (Neisseria flavescens 16, Replicate 3) was 0.25 µg/mL (≈ 0.595 µM) and the MIC (Neisseria flavescens 17, Consensus) was 1 µg/mL (≈ 2.38 µM). The MIC (Neisseria flavescens 17, Replicate 1) was 1 µg/mL (≈ 2.38 µM), the MIC (Neisseria flavescens 17, Replicate 2) was 0.5 µg/mL (≈ 1.19 µM) and the MIC (Neisseria flavescens 17, Replicate 3) was 1 µg/mL (≈ 2.38 µM). The MIC (Neisseria gonorrhoeae subspecies kochii 1, Consensus) was 0.016 µg/mL (≈ 0.0381 µM), the MIC (Neisseria gonorrhoeae subspecies kochii 1, Replicate 1) was 0.032 µg/mL (≈ 0.0761 µM) and the MIC (Neisseria gonorrhoeae subspecies kochii 1, Replicate 2) was 0.016 µg/mL (≈ 0.0381 µM). It also gave an MIC (Neisseria gonorrhoeae subspecies kochii 1, Replicate 3) of 0.016 µg/mL (≈ 0.0381 µM), an MIC (Neisseria gonorrhoeae subspecies kochii 2, Consensus) of 0.008 µg/mL (≈ 0.019 µM) and an MIC (Neisseria gonorrhoeae subspecies kochii 2, Replicate 1) of 0.008 µg/mL (≈ 0.019 µM). The MIC (Neisseria gonorrhoeae subspecies kochii 2, Replicate 2) was 0.008 µg/mL (≈ 0.019 µM), the MIC (Neisseria gonorrhoeae subspecies kochii 2, Replicate 3) was 0.008 µg/mL (≈ 0.019 µM) and the MIC (Neisseria gonorrhoeae subspecies kochii 3, Consensus) was 0.008 µg/mL (≈ 0.019 µM). For the same compound, the MIC (Neisseria gonorrhoeae subspecies kochii 3, Replicate 1) was 0.008 µg/mL (≈ 0.019 µM), the MIC (Neisseria gonorrhoeae subspecies kochii 3, Replicate 2) was 0.008 µg/mL (≈ 0.019 µM) and the MIC (Neisseria gonorrhoeae subspecies kochii 3, Replicate 3) was 0.008 µg/mL (≈ 0.019 µM). For the same compound, the MIC (Neisseria lactamica 1, Consensus) was 0.032 µg/mL (≈ 0.0761 µM), the MIC (Neisseria lactamica 1, Replicate 1) was 0.032 µg/mL (≈ 0.0761 µM) and the MIC (Neisseria lactamica 1, Replicate 2) was 0.064 µg/mL (≈ 0.152 µM).
